This note sets out measurements from publication PMC11990524, “Design and Synthesis of Novel 6-(Substituted phenyl)-[1,3]dioxolo[4′,5′:4,5]benzo[1,2-d]thiazole Compounds as Tyrosinase Inhibitors: In Vitro and In Vivo Insights” (Molecules, 2025).

One data set has as its system zebrafish embryos. As to the kind of experiment: In vivo pigmentation assay using zebrafish embryos. As to conditions: kojic acid 20 mM; treated at 24 hpf, measured at 72 hpf. Also on record: species or system Danio rerio. How it is done:
To identify whether the synthesized compounds could exert anti-melanogenic effects in vivo, in vivo experiments were performed using zebrafish embryos. Freely obtained zebrafish embryos were transferred to a culture dish containing an E3-MB solution and incubated at 28 °C until use. For a preliminary experiment, zebrafish embryos were dechorionated using Pronase® (Sigma-Aldrich) at 20 h post fertilization (hpf), and each compound at 0.1 mM was exposed to five zebrafish embryos in E3 solution at 24 hpf. The depigmentation abilities were compared at 72 hpf to select the compounds used in the main experiments. From the preliminary experiments (n = 1), five compounds (2, 5, and 11–13) were selected for the main depigmentation experiments (n = 3). As in the preliminary experiment, the obtained zebrafish embryos were dechorionated at 20 hpf, and each selected compound (0.1 mM) was administered to six zebrafish embryos in the E3 solution at 24 hpf. The pigmentation of zebrafish larvae was photographed and measured in dorsal and lateral views at 72 hpf using an ATTO CS analyzer (ATTO, Tokyo, Japan). […] Pigmentation of zebrafish larvae was imaged using the SMZ745T microscope (Nikon, Tokyo, Japan), and the pigmented areas were measured in dorsal and lateral views at 72 hpf using an ATTO CS analyzer (ATTO, Tokyo, Japan).

The target of data set [1] is T1, B16F10 cellular tyrosinase (Mus musculus, UniProt P11344).
T1 construct: endogenous in cells; host or cells: B16F10 murine cells, stimulated with α-MSH and IBMX
T1 sequence (P11344 19-533): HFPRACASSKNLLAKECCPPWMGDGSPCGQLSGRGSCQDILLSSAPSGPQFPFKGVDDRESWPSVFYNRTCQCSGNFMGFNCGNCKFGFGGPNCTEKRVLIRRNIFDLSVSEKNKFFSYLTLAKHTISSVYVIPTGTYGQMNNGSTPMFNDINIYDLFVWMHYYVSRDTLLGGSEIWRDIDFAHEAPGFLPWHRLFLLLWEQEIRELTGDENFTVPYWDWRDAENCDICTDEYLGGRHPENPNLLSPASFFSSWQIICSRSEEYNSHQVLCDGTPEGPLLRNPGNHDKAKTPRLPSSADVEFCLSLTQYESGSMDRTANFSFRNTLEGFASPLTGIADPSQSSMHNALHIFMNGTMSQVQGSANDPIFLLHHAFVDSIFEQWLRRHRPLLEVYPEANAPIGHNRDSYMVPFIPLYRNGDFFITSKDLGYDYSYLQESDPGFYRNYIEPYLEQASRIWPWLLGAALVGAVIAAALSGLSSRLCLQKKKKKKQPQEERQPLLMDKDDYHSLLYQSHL
Kind of data set: Cellular tyrosinase activity assay using B16F10 cells. As to conditions: 1, 2, and 5 μM, IBMX 200 μM plus α-MSH 1 μM, 72 h. It is filed as cell-based, murine. How it is done: After 72 h of incubation, the B16F10 cellular tyrosinase inhibitory activity was evaluated by measuring the optical density at 475 nm.
To evaluate the effect of compounds 5 and 9 on cellular tyrosinase activity, B16F10 cells (5000 cells/well) were inoculated in a 6-well plate and cultured for 24 h under the same conditions as the cell culture. […] The plate was incubated in a 5% CO2 incubator maintained at 37 °C for 1 h. Each well was treated with stimulators (1 μM α-MSH [Alomone Labs^TM, Jerusalem, Israel] and 200 μM IBMX [Thermo Fisher, Rockford, IL, USA]) and incubated in a CO2 incubator for 72 h. The cells were rinsed twice with PBS (pH 7.4) and treated with 100 μL lysis buffer solution consisting of Triton X-100 (1%; 5 μL), phosphate buffer (50 mM; pH 6.5; 90 μL), and phenylmethanesulfonyl fluoride (2 mM; 5 μL). The lysates were placed for 30 min at −80 °C. After centrifuging at 10,000 g and 4 °C for 10 min, an aliquot (80 μL) of the supernatants was transferred to each well of a 96-well plate, and 20 μL of L-dopa solution (10 mM) was added to each well. The optical density at 475 nm was recorded every min for 10 min to determine cellular tyrosinase activity.

The target of data set [2] is T2, mushroom tyrosinase (Agaricus bisporus, UniProt C7FF04). As to the kind of experiment: Mushroom tyrosinase inhibitory activity assay (L-dopa or L-tyrosine as substrate). It is filed as biochemical. As to conditions: 50 μM, read-out: Inhibition (%, Mean ± SEM) at 50 μM (converted). On the procedure:
In the inhibition experiments, L-dopa and L-tyrosine were used as enzyme substrates.
The plate was incubated at 37 °C for 30 min, and absorbance of dopachrome formation was recorded spectrophotometrically at 475 nm using a VersaMax® Elisa (VE) microplate reader (Molecular Devices, San Jose, CA, USA) to determine tyrosinase inhibition activity. A VE microplate reader was used in all subsequent experiments to measure optical density. All experiments were carried out independently three times.
Target sequence in this assay (C7FF04 2-392): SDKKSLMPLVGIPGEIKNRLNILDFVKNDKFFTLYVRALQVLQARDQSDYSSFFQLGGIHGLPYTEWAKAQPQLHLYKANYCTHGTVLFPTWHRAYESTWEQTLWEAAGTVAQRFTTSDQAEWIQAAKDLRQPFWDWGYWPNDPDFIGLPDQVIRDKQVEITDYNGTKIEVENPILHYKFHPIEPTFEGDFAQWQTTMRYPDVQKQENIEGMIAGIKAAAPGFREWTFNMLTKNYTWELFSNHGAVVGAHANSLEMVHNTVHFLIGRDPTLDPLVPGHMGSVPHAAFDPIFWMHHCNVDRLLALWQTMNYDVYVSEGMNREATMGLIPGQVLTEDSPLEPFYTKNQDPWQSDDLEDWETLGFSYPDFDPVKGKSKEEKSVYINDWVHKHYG

For a further data set, the system named is B16F10 cells. As to the kind of experiment: Cellular melanin content assay using B16F10 cells. It is filed as cell-based, murine. On the procedure:
After 72 h of incubation, the melanin content was evaluated by measuring the optical density at 405 nm.
The plate was incubated in a CO2 incubator for 1 h. Each well was treated with stimulators (α-MSH and IBMX; 1 μM and 200 μM, respectively) and incubated in a CO2 incubator for 72 h. The incubated cells were rinsed twice with PBS (pH 7.4). 1N–NaOH solution (100 μL) was added to each well and warmed at 60 °C for 1 h. The lysates were transferred to each well of a 96-well plate. The optical density was measured at 405 nm.

For another data set, the target named is T3, B16F10 cell tyrosinase (Mus musculus, UniProt P11344).
T3 construct: endogenous in cells; host or cells: B16F10 murine cells, stimulated with α-MSH and IBMX
T3 sequence (P11344 19-533): T1 sequence (P11344 19-533)
As to the kind of experiment: In situ cellular tyrosinase activity assay using B16F10 cells. The format is cell-based, murine. As to conditions: 1, 2, and 5 μM, IBMX plus α-MSH, 72 h, L-dopa 2 h. On the procedure: After 72 h of incubation, the cells were treated with an excessive amount of L-dopa for 2 h, and then the melanin-stained cells were photographed, and the pigmented areas of the cells were determined using an ATTO CS Analyzer (ATTO, Tokyo, Japan).
B16F10 (3 × 10^3 cells/well) cells in a 24-well plate were incubated for 24 h in a 5% CO2 incubator maintained at 37 °C. […] Stimulators (α-MSH and IBMX; 1 μM and 200 μM, respectively) were exposed to cells 1 h after treatment with the test sample, and the cells were incubated for 72 h in a 5% CO2 incubator. The cells were fixed for 40 min using paraformaldehyde solution (4%) (Sigma-Aldrich, St. Louis, MO, USA), washed with PBS (pH 7.4), and permeabilized for 2 min using Triton X-100 (0.1%). After washing twice with PBS, each well was exposed to L-dopa solution (500 μL; 2 mM). After incubation for 2 h, images of the cells stained with excess melanin were obtained using a camera connected to a microscope (Motic, Hong Kong).

Data set [3] concerns the target T2, mushroom tyrosinase. As to the kind of experiment: Kinetic analysis of mushroom tyrosinase (Lineweaver–Burk and Dixon plots). It is filed as biochemical. Also on record: purchased Sigma-Aldrich. As to conditions: substrate L-dopa. How it is done: Therefore, the mechanism of inhibition was investigated using mushroom tyrosinase. At various concentrations of L-dopa, the initial dopachrome production rate was investigated at four different concentrations of 5 (0, 20, 40, and 80 μM) and 9 (0, 0.5, 1.0, and 2.0 μM).
The Lineweaver–Burk plot for each compound was re-plotted by plotting the reciprocal of the initial dopachrome production rate vs. the […] to create a Dixon plot for each compound (Figure 3C,D for compounds 5 and 9, respectively). […] The absolute value of the x-coordinate of the merged point represents the inhibition constant (Ki), which indicates the potency of the inhibitor.
Kinetic analysis of mushroom tyrosinase was performed by recording the initial dopachrome formation rate in the presence of compounds 5 and 9. […] The optical density of dopachrome production in each well was recorded at 475 nm at 5 min intervals for 30 min. Compounds were tested at 80, 40, 20, and 0 μM for 5 and at 2, 1.0, 0.5, and 0 μM for 9, respectively. Potting the inverse of the substrate concentration vs. the reciprocal of the initial dopachrome production rate generated Lineweaver–Burk plots.
Target sequence in this assay (C7FF04 1-392): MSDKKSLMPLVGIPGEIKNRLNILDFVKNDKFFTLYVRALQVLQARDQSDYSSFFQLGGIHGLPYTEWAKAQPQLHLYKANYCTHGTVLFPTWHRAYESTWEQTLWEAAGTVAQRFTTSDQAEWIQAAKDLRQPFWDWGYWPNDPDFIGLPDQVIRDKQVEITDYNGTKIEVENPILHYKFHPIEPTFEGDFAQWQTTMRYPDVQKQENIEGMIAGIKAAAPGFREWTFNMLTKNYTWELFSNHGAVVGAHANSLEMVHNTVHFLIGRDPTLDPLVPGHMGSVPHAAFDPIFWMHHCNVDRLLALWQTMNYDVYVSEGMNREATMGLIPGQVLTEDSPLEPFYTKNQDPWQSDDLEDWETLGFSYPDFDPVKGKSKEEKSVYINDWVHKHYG

For the next data set, the system named is HaCaT cells. Kind of data set: Cytotoxicity assay on HaCaT cells (EZ-Cytox). The format is cell-based, human. As to conditions: 1, 2, 5, 10, and 20 μM, 24 h. How it is done:
In addition to melanocytes, keratinocytes are the primary cells present in the epidermis. […] Each compound was treated at concentrations of 0, 1, 2, 5, 10, and 20 μM for 24 h, and cell viability was measured using the EZ-Cytox solution.
The effect of compounds 5 and 9 on cell viability of HaCaT and B16F10 cells was assessed using an EZ-Cytox solution (EZ-1000®, DoGenBio, Seoul, Republic of Korea). HaCaT (5 × 10^3 cells/well) and B16F10 (1 × 10^3 cells/well) cells were seeded in a 96-well plate, respectively, and cultured for 24 h under the same conditions as the cell culture. Each well was treated with 5 and 9 at 0, 1, 2, and 5 μM for B16F10 cells and 0, 1, 2, 5, 10, and 20 μM for HaCaT cells. The plates were incubated for 72 h for B16F10 cells and 24 h for HaCaT cells under a CO2 incubator. Each well was treated with the EZ-Cytox solution (10 μL), and the plate was left for 2 h under a CO2 incubator. Well optical density was measured at 450 nm to determine cytotoxicity.

Where two headings read alike, the source gives them in different places.

For `O=c1cc(CO)occ1O` [kojic acid], the “depigmentation effect on zebrafish larvae” value with zebrafish embryos is “significant depigmentation effect”.

The term inhibition denotes the change of the read-out against control, counted positive when it falls. Usually Ki stands for the equilibrium dissociation constant of an inhibitor or competing ligand from its target. `Oc1ccc(-c2nc3cc4c(cc3s2)OCO4)cc1` [Compound 5, 4-([1,3]Dioxolo[4′,5′:4,5]benzo[1,2-d]thiazol-6-yl)phenol]: in data set [1], the cellular tyrosinase activity entry is “significantly decreased the cellular tyrosinase activity”. Besides, the inhibition at 50 µM is 63.3% on mushroom tyrosinase [2] (substrate L-dopa) and 61.4% at mushroom tyrosinase [2] (substrate L-tyrosine). In addition, in the data set on B16F10 cells (1, 2, and 5 μM, IBMX 200 μM plus α-MSH 1 μM, 72 h), the melanin content entry is recorded as “significantly reduced the stimulator-induced melanin contents”. Further, the “melanin production inhibition compared with kojic acid” value with B16F10 cells (same concentration (5 μM)) is recorded as “inhibited melanin production more potently than kojic acid”. In addition, the “number of cells strongly stained with melanin (in situ tyrosinase)” value on B16F10 cell tyrosinase is given as “evidently reduced the number of cells strongly stained with melanin”. In addition, the inhibition constant (Ki) at mushroom tyrosinase [3] (Dixon plot, read-out: inhibition constant (Ki)) came to 46 µM. Also, the mechanism of inhibition entry on mushroom tyrosinase [3] (Lineweaver–Burk plot) was “competitive inhibitors”. Further, the “cytotoxicity (cell viability)” value in the data set with HaCaT cells was “None of the compounds revealed significant cytotoxicity up to 20 μM”.
